The test system of assay [1] is NHDF GDF15. Description: Western blotting of GDF15 expression in NHDF. As to conditions: 50 μg/mL, 24 hours, versus control with nothing added. Type of assay: cell-based, human. How it is done:
50 μg/mL of the O-GlcNAcylated protein-like substance, the AC-GlcNAc monomer, or N-acetylglucosamine (GlcNAc) prepared in Polymerization Examples 1 to 5 was added to NHDF, and incubation was performed for 24 hours. After the incubation, the expression of NHDF GDF15 was examined by Western blotting. Furthermore, the control was one to which nothing was added.
Furthermore, 10 μg/mL, 50 μg/mL, and 100 μg/mL of the O-GlcNAcylated protein-like substances (AC-GlcNAc10, mass-average molecular weight: 4,000, number-average molecular weight: 3,100) prepared in Polymerization Example 1 were each added to NHDF, and incubation was performed for 24 hours. After the incubation, the expression of NHDF GDF15 was observed by Western blotting. Furthermore, the control was one to which nothing was added.
Background: In western blotting, separated proteins are transferred to a membrane and probed.

The subject of assay [2] is NHDF. Description: Chemotaxis of NHDF under agarose gel containing the substance. Type of assay: cell-based, human. To be noted: FIG. 10, comparison of polymer, monomer, GlcNAc and PBS. How it is done: Using AC-GlcNAc (10-mer) as an O-GlcNAcylated protein-like substance, 250 μg/mL AC-GlcNAc (10-mer) was mixed with an agarose gel to prepare an O-GlcNAcylated protein-like substance-containing agarose gel. In addition, a PBS-containing agarose gel was prepared using PBS instead of the O-GlcNAcylated protein-like substance. A glass plate was placed in a petri dish, each agarose gel was added dropwise onto the glass plate, NHDF was further seeded on the entire glass plate, and incubation was performed for one day.
Next, agarose gels having blending amounts of 50 μg/mL, 100 μg/mL, and 250 μg/mL of the O-GlcNAcylated protein-like substance were prepared, and the chemotaxis of NHDF was evaluated in the same manner as above. […]
Next, the chemotaxis of NHDF by an O-GlcNAcylated protein-like substance was evaluated. The materials used were the O-GlcNAcylated protein-like substance prepared in Polymerization Example 1, the AC-GlcNAc monomer prepared in Polymerization Example 5, and N-acetylglucosamine (GlcNAc) and PBS used in Example 2, and the chemotaxis of NHDF was evaluated in the same manner as above. […]
Next, it was evaluated by the same method as above whether or not there was a difference in the chemotaxis of NHDF due to the difference in the degree of polymerization of the O-GlcNAcylated protein-like substance. […]

`C=CC(=O)OCCC(=O)NC1OC(CO)[C@@H](O)C(O)C1NC(C)=O` (stereo partly shown) [AC-GlcNAc monomer]: the “expression of GDF15 (Western blotting)” value in assay [1] was “almost the same effect as the control”. Besides, the “invasion of cells under the agarose gel” value in assay [2] is listed as “cells invaded under the agarose gel only with the O-GlcNAcylated protein-like substance of Polymerization Example 1”.

On to `CC(=O)N[C@H]1C(O)O[C@H](CO)[C@@H](O)[C@@H]1O` (stereo partly shown) [GlcNAc, N-acetylglucosamine], for which, in assay [1], the “expression of GDF15 (Western blotting)” value was “almost the same effect as the control”. Also, the “invasion of cells under the agarose gel” value in assay [2] is given as “cells invaded under the agarose gel only with the O-GlcNAcylated protein-like substance of Polymerization Example 1”.

The record behind these values is patent publication US20220389047A1, “O-GLCNACYLATED PROTEIN-LIKE SUBSTANCE AND FIBROSIS THERAPEUTIC DRUG CONTAINING SAME” (KYUSHU UNIVERSITY, NATIONAL UNIVERSITY CORPORATION, priority 2019, published 2022).
